The source of these data is US20220313819A1, “COMBINATION THERAPY FOR THE TREATMENT OF SOLID AND HEMATOLOGICAL CANCERS” (Arch Oncology, Inc., priority 2019, published 2022).

Test [1] has as its system MM.1S tumors. In words: MM.1S multiple myeloma xenograft, combination with bortezomib. The test is classed as in vivo, mouse. From the text: MM.1S human multiple myeloma cells (ATCC #CRL-2974, Manassas, Va.) were maintained in RPMI-1640 (Lonza; Walkersville, Md.) supplemented with 10% Fetal Bovine Serum (FBS; Omega Scientific; Tarzana, Calif.) and 1% Penicillin/Streptomycin (Corning, Manassas, Va.) within a 5% CO2 atmosphere. Cultures were expanded in tissue culture flasks.
(§1) Female NSG (NOD-Cg-Prkdc^scidI12rg^tm1Wjl/SzJ) were obtained from Jackson Laboratory (Bar Harbor, Me.) at 5-6 weeks of age. Mice were acclimated prior to handling and housed in microisolator cages (Lab Products, Seaford, Del.) under specific pathogen-free conditions. Mice were fed Teklad Global Diet® 2920x irradiated laboratory animal diet (Envigo, Formerly Harlan; Indianapolis, Ind.) and provided autoclaved water ad libitum. All procedures were carried out under Institutional Animal Care and Use guidelines.
(§2) The mean TS of each group was calculated and reported.
All statistical analyses in the xenograft study were performed with Prism GraphPad® software.

For the next test, the system named is RPMI-8226 tumors. In words: RPMI-8226 multiple myeloma xenograft in NSG mice. It is filed as in vivo, mouse.
From the text: RPMI-8226 human multiple myeloma cells (ATCC #CCL-155, Manassas, Va.) were maintained in RPMI-1640 (Lonza; Walkersville, Md.) supplemented with 10% Fetal Bovine Serum (FBS; Omega Scientific; Tarzana, Calif.) and 1% Penicillin/Streptomycin (Corning, Manassas, Va.) within a 5% CO2 atmosphere. Cultures were expanded in tissue culture flasks.
as §1
Female NSG mice were inoculated subcutaneously in the right flank with 0.1 mL of a 30% RPMI/70% Matrigel™ (BD Biosciences; Bedford, Mass.) mixture containing a suspension of 1×10^7 RPMI-8226 tumor cells.
as §2
Differences in Day 48 tumor volumes were confirmed using a one-way ANOVA, unpaired, parametric with the Tukey's Multiple Comparison test with Welch's correction. […]

Another test concerns SNU-1 tumors. As to the kind of experiment: SNU-1 gastric carcinoma xenograft in NSG mice. The conditions noted are these: antibody 25 mg/kg IP Q7D×5, cisplatin 3 mg/kg Q7D×4. The test is classed as in vivo, mouse. As for the experimental part: Female NSG mice (NOD-Cg-PrkdcscidI12rgtm1Wjl/SzJ, Jackson Laboratories) were inoculated subcutaneously in the right flank with 0.1 mL of a 30% RPMI/70% Matrigel™ (BD Biosciences; Bedford, Mass.) mixture containing a suspension of 5×10^6 SNU-1 gastric carcinoma cells (ATCC). Eight days following inoculation, digital calipers were used to measure width and length diameters of the tumor. Tumor volumes were calculated utilizing the formula: tumor volume (mm^3)=(a×b^2/2) where ‘b’ is the smallest diameter and ‘a’ is the largest diameter. Mice with palpable tumor volumes of 50-100 mm^3 were randomized into 10 mice/group and administered anti-CD47 mAb VLX9hum_06 IgG2, cisplatin, control IgG2, or a combination of anti-CD47 mAb VLX9hum_06 IgG2 with cisplatin. Mice were treated with 25 mg/kg of antibody once a week for 5 weeks (Q7D×5) by intraperitoneal injection (IP) and/or with 3 mg/kg of cisplatin once weekly for 4 weeks (Q7D×4). Tumor volumes and body weights were recorded twice weekly.
Mean tumor growth inhibition (TGI) was calculated utilizing the following formula.
Significant differences in tumor volume were confirmed using a two-way ANOVA, unpaired, parametric with the Tukey's Multiple Comparison test.

A further test concerns OV90 tumors. In words: OV90 ovarian carcinoma xenograft in NSG mice. The test is classed as in vivo, mouse. The conditions noted are these: OV90, Day 52; antibody 10 mg/kg IP QD5×6, cisplatin 5 mg/kg, paclitaxel 20 mg/kg.
Test [2] has as its system MM.1S tumors. In words: MM.1S xenograft in NOD-SCID mice, combination with lenalidomide or pomalidomide. The test is classed as in vivo, mouse. The conditions noted are these: for complete tumor regression: N=9/group; for tumor growth inhibition (TGI): mAb 25 mg/kg IP weekly. The text has this: MM.1S human multiple myeloma cells (ATCC #CRL-2974, Manassas, Va.) were maintained in RPMI-1640 (Lonza; Walkersville, Md.) supplemented with 10% Fetal Bovine Serum (FBS; Omega Scientific; Tarzana, Calif.) and 1% Penicillin/Streptomycin (Corning, Manassas, Va.) within a 5% CO2 atmosphere. Cultures were expanded in tissue culture flasks. Female NOD-SCID (NOD.CB17-Prkdc^scid/J) mice were obtained from Jackson Laboratory (Bar Harbor, Me.) at 5-6 weeks of age. Mice were acclimated prior to handling and housed in microisolator cages (Lab Products, Seaford, Del.) under specific pathogen-free conditions. Mice were fed Teklad Global Diet® 2920x irradiated laboratory animal diet (Envigo, Formerly Harlan; Indianapolis, Ind.) and provided autoclaved water ad libitum. All procedures were carried out under Institutional Animal Care and Use guidelines.
Female NOD-SCID mice were inoculated subcutaneously in the right flank with 0.1 mL of a 50% RPMI-1640/50% Matrigel™ (BD Biosciences; Bedford, Mass.) mixture containing a suspension of 5×10^6 MM.1S tumor cells. When tumors reached volumes of approximately 50-100 mm^3, mice were randomized. The test articles, human IgG2 (hIgG2), anti-CD47 mAb (VLX9hum_06 IgG2) were administered by intraperitoneal (IP) injection and lenalidomide or pomalidomide (LC Labs, Woburn, Mass.) were administered by oral gavage (PO). hIgG2 (25 mg/kg) or an anti-CD47 mAb VLX9hum_06 IgG2 (25 mg/kg) were administered weekly for 5 weeks, while lenalidomide (25 mg/kg) or pomalidomide (10 mg/kg) were administered on 4 successive days, with 3 days off, weekly for 5 weeks.
Mean tumor growth inhibition (TGI) was calculated at Day 24 (the final day all mice were on study) utilizing the following formula.
All statistical analyses in the xenograft study were performed with Prism GraphPad® software. Differences in Day 24 tumor volumes were confirmed using a two-way ANOVA, unpaired, parametric with the Tukey's Multiple Comparison test with Welch's correction.

The next test relates to Jurkat T ALL cell line. In words: ATP release. The conditions noted are these: mAb 10 μg/ml or mitoxantrone 1 μM, 24 hours. The test is classed as cell-based, human. As for the experimental part: Release of ATP from the tumor cell is determined by quantitative bioluminescence assay as described by the manufacturer (Molecular Probes; Catalogue #A22066).
The humanized antibodies (VLX4hum_01 IgG4PE, VLX4hum_07 IgG4PE, VLX8hum_11 IgG4PE, VLX9hum_06 IgG2, VLX9hum_08 IgG2 and VLX9hum_03) as disclosed herein, purified from transient transfections in CHO cells as described above, as well as the control chimeric antibody, were added at a final concentration of 10 μg/ml. As a positive control for ATP release, cells were treated with 1 μM of chemotherapeutic anthracycline mitoxantrone. The cells were incubated at 37° C. for 24 hours, after which the cell-free supernatant was collected and stored at −80° C. After all samples have been collected, 10 μl of each sample was tested by the ATP determination kit as described above. […] Results are presented as means SEM and analyzed for statistical significance using ANOVA in GraphPad Prism 6.

Test [3] deals with MM.1S tumors. In words: MM.1S multiple myeloma xenograft, combination with daratumumab. The test is classed as in vivo, mouse. As for the experimental part:
The anti-tumor properties of a humanized anti-CD47 antibody (VLX9hum_06 IgG2) and in combination with anti-CD38 monoclonal antibody daratumumab which reduce tumor burden in a xenograft MM.1S multiple myeloma NSG mouse model were evaluated MM.1S human multiple myeloma cells (ATCC #CRL-2974, Manassas, Va.) were maintained in RPMI-1640 (Lonza; Walkersville, Md.) supplemented with 10% Fetal Bovine Serum (FBS; Omega Scientific; Tarzana, Calif.) and 1% Penicillin/Streptomycin (Corning, Manassas, Va.) within a 5% CO2 atmosphere. Cultures were expanded in tissue culture flasks.
as §1
Female NSG mice were inoculated subcutaneously in the right flank with 0.1 mL of a 30% RPMI/70% Matrigel™ (BD Biosciences; Bedford, Mass.) mixture containing a suspension of 5×10^6 MM.1S tumor cells. […]
Mean tumor growth inhibition (TGI) was calculated at Day 20 utilizing the following formula. […]

Protocol for OV90 tumors: Female NSG mice (NOD-Cg-PrkdcscidI12rgtm1Wjl/SzJ, Jackson Laboratories) were inoculated subcutaneously in the right flank with 0.1 mL of a 30% RPMI/70% Matrigel™ (BD Biosciences; Bedford, Mass.) mixture containing a suspension of 5×10^6 OV90 ovarian carcinoma cells (ATCC). Digital calipers were used to measure width and length diameters of the tumor. Tumor volumes were calculated utilizing the formula: tumor volume (mm^3)=(a×b^2/2) where ‘b’ is the smallest diameter and ‘a’ is the largest diameter. Mice with palpable tumor volumes of 50-100 mm^3 were randomized into 10 mice/group. […] Tumor volumes and body weights were recorded twice weekly.

In the case of `CC(C)C[C@H](NC(=O)[C@H](Cc1ccccc1)NC(=O)c1cnccn1)B(O)O` [bortezomib], the median survival in the test with MM.1S tumors [1] was 35 days; with RPMI-8226 tumors (RPMI-8226, 1 mg/kg), 78 days. Also, the “tumor growth inhibition (TGI)” value was 91.8% in the test on MM.1S tumors [1] (Day 20, mAb 25 mg/kg IP weekly, bortezomib 0.75 then 0.5 mg/kg IV) and 96% with RPMI-8226 tumors (RPMI-8226, Day 48, 1 mg/kg IV Day 1, 4, 12).

For the compound `N.N.[Cl][Pt][Cl]` [cisplatin], the figures for the “tumor growth inhibition (TGI)” value in the test on SNU-1 tumors and in the test on OV90 tumors were 39.7% and 53.1%, respectively.

Turning to `Nc1cccc2c1CN(C1CCC(=O)NC1=O)C2=O` (centres unmarked) [lenalidomide], the complete tumor regression result in the test with MM.1S tumors [2] (FIG. 91A) is reported as “no tumor regressions”. The “tumor growth inhibition (TGI)” value in the test on MM.1S tumors [2] (day 24, FIG. 91A, lenalidomide 25 mg/kg PO) stood at 48%.

For `O=C1c2c(O)ccc(O)c2C(=O)c2c(NCCNCCO)ccc(NCCNCCO)c21` [mitoxantrone], the “amount of released ATP” value with Jurkat T ALL cell line was “did not (ns)”.

As to `CC(=O)O[C@H]1C(=O)[C@@]2(C)[C@H]([C@H](OC(=O)c3ccccc3)[C@]3(O)C[C@H](OC(=O)[C@H](O)[C@@H](NC(=O)c4ccccc4)c4ccccc4)C(C)=C1C3(C)C)[C@]1(OC(C)=O)CO[C@@H]1C[C@@H]2O` [paclitaxel], the “tumor growth inhibition (TGI)” value in the test with OV90 tumors amounted to 32.1%.

For the compound `Nc1cccc2c1C(=O)N(C1CCC(=O)NC1=O)C2=O` (centres unmarked) [pomalidomide], in the test on MM.1S tumors [2] (FIG. 91B), the complete tumor regression entry is reported as “no tumor regressions”. For the same compound, the “tumor growth inhibition (TGI)” value in the test on MM.1S tumors [2] (day 24, FIG. 91B, pomalidomide 10 mg/kg PO) came out at 23%.

As to “daratumumab: anti-CD38 monoclonal antibody”, in the test on MM.1S tumors [3], the median survival was 29 days. In addition, in the test with MM.1S tumors [3] (Day 20, mAb 25 mg/kg weekly, daratumumab 15 mg/kg twice weekly), the “tumor growth inhibition (TGI)” value is given as 54%.
